Laboratory results as given in patent US20090176759A1, “LEUKEMIC STEM CELL ABLATION” (ChemGenex Pharmaceuticals, Inc., priority 2007, published 2009).

What was measured:
[1] = Phase 2/3 study of subcutaneous omacetaxine, safety and tolerability; format: in vivo, human
Description: (§1) A multicenter open-label phase 2/3 study evaluating safety and efficacy of omacetaxine administered subcutaneously (SC) in patients with IM-resistant T315I+CML in all phases of the disease is being conducted.
(§2) Induction phase—1.25 mg/m2 twice daily SC for 14 consecutive days every 28 days until complete hematologic response (CHR) or hematologic improvement has been achieved.
(§3) Maintenance therapy—1.25 mg/m2 twice daily SC for 7 days every 28 days for up to 24 months.
(§4) Doses were adjusted to maintain adequate WBC and platelet control by increasing or decreasing the number of days of administration of omacetaxine.
Includes all events considered related, probably related, possibly related, or with unknown relationship to omacetaxine treatment. Events listed in the table are included if occurrence was >5% of the total population (at least 1 of 23 patients).

[2] = system: K562 myeloid cells; test: Proliferation, number of viable cells determined by trypan blue; format: cell-based
Description: (§5) In FIG. 1A the number of viable cells at the indicated drug concentrations was determined by trypan blue. In FIG. 1B the expression of ABL and MCL-1 in K562 (myeloid) cells is inhibited by HHT. In FIG. 1C the expression of ABL in lymphoid cells with BCR-ABL or the BCR-ABL T315I mutation is inhibited by HHT.
(§6) Antibodies for Western Blot analysis against c-ABL, Mcl-1 and β-actin were purchased from Santa Cruz Biothechology (Santa Cruz, Calif.). Protein lysates were prepared by lysing cells in RIPA buffer and immunoprecipitation. The retroviral vector MSCV-IRES-eGFP carrying the BCR-ABL cDNA was used to make virus stock for bone marrow transduction/transplantation. Four- to 10-week-old wild-type BABL/c or C57BL/6 (The Jackson Laboratory) and homozygous SRC triple gene knockout (Lyn−/−Hck−/−Fgr−/−) mice were used for leukemogenesis experiments. HHT (ChemGenex Pharmaceuticals, Inc, CA) was dissolved in accompanying diluent to a stock concentration of 1 mg/ml. Further dilutions were made to working concentrations using media or water.

[3] = system: B-cells containing BCR-ABL-WT; test: as above; format: cell-based
Description: as §5, §6

[4] = system: B-cells containing BCR-ABL-T315I; test: as above; format: cell-based
Description: as §5, §6

[5] = system: ABL; test: Western Blot analysis of ABL expression; format: cell-based
Description: as §5, §6

[6] = system: IM-resistant T315I+CML; test: Multicenter open-label phase 2/3 study of subcutaneous omacetaxine, efficacy; format: in vivo, human
Text: As used herein, a cytological response to treatment with cephalotaxine and/or TKI is a response that occurs in the bone marrow rather than just in the peripheral blood. There are at least three cytological responses: (1) a cytogenetic response (CR); (2) a major cytogenetic response (MCR); and a complete cytogenetic response (CCR). Determination of such responses is based on the measurement of the number of peripheral blood and/or bone marrow cells having a marker that is associated with a particular leukemia. Such markers include cell surface antigens, aberrant proteins, and genetic modifications. A cytogenetic response occurs if the number or percentage of cells with such a marker decreases during treatment. A major cytogenetic response occurs if the number or percentage of such cells falls below 35%. A complete cytogenetic response occurs when no cells containing the marker are detected. For example, CML is characterized by the Ph+ chromosome. A cytogenetic response has occurred if the number of Ph+ chromosomes decreases at all during treatment. If the Ph+ percentage drops to 35% or less, it is considered a major cytogenetic response; 0% Ph+ is a complete cytogenetic response.
As used herein, a hematological response occurs when there is a change in the white blood cell count of a patient following treatment with cephalotaxine and/or TKI. The change in white blood cell count can be in the peripheral blood and the bone marrow although the change may be observed only in the peripheral blood. The response can be a partial reduction in white cell count or complete reduction to normal values (e.g. 10,000-12,000 cells […].)
This example summarizes human clinical trials using HHT to treat patients with IM-resistant T315I+CML.
as §1, §2, §3, §4

[7] = Accelerated Phase, N = 5, median (range)
[8] = Chronic Phase, N = 20, median (range)

COC(=O)C[C@](O)(CCCC(C)(C)O)C(=O)O[C@@H]1C(OC)=C[C@]23CCCN2CCc2cc4c(cc2[C@H]13)OCO4 [HHT, Homoharringtonine]
Treatment-Related Serious Adverse Events: Neutropenic Fever ([1]; Accelerated Phase): 1 (9) Number (percent) | Treatment-Related Serious Adverse Events: Thrombocytopenia ([1]; Accelerated Phase): 0 Number (percent) | Grade 3/4 Toxicities: Anemia ([1]; Accelerated Phase, N = 5): 2 (40) number (percent) | Grade 3/4 Toxicities: Diarrhea ([1]; Accelerated Phase, N = 5): 1 (20) number (percent) | Grade 3/4 Toxicities: Febrile neutropenia ([1]; Accelerated Phase, N = 5): 2 (40) number (percent) | Grade 3/4 Toxicities: Neutropenia ([1]; Accelerated Phase, N = 5): 2 (40) number (percent) | Grade 3/4 Toxicities: Pancytopenia ([1]; Accelerated Phase, N = 5): 2 (40) number (percent) | Grade 3/4 Toxicities: Thrombocytopenia ([1]; Accelerated Phase, N = 5): 3 (60) number (percent) | Treatment-Related Serious Adverse Events: Acute Coronary Syndrome* ([1]; Accelerated Phase, N = 6): 0 Number (percent) | Deaths on study ([1]; BP patients with progressive disease, none considered related to the study drug): 3 deaths | Grade 3/4 Toxicities: Anemia ([1]; Blast Phase, N = 6): 1 (17) number (percent) | Grade 3/4 Toxicities: Diarrhea ([1]; Blast Phase, N = 6): 1 (17) number (percent) | Grade 3/4 Toxicities: Febrile neutropenia ([1]; Blast Phase, N = 6): 2 (40) number (percent) | Grade 3/4 Toxicities: Neutropenia ([1]; Blast Phase, N = 6): 2 (33) number (percent) | Grade 3/4 Toxicities: Pancytopenia ([1]; Blast Phase, N = 6): 0 number (percent) | Grade 3/4 Toxicities: Thrombocytopenia ([1]; Blast Phase, N = 6): 1 (17) number (percent) | Treatment-Related Serious Adverse Events: Acute Coronary Syndrome* ([1]; Blast Phase, N = 6): 0 Number (percent) | Treatment-Related Serious Adverse Events: Neutropenic Fever ([1]; Blast Phase, N = 6): 1 (9) Number (percent) | Treatment-Related Serious Adverse Events: Thrombocytopenia ([1]; Blast Phase, N = 6): 0 Number (percent) | Grade 3/4 Toxicities: Anemia ([1]; Chronic Phase, N = 12): 7 (58) number (percent) | Grade 3/4 Toxicities: Diarrhea ([1]; Chronic Phase, N = 12): 2 (17) number (percent) | Grade 3/4 Toxicities: Febrile neutropenia ([1]; Chronic Phase, N = 12): 1 (9) number (percent) | Grade 3/4 Toxicities: Neutropenia ([1]; Chronic Phase, N = 12): 6 (50) number (percent) | Grade 3/4 Toxicities: Pancytopenia ([1]; Chronic Phase, N = 12): 1 (9) number (percent) | Grade 3/4 Toxicities: Thrombocytopenia ([1]; Chronic Phase, N = 12): 8 (67) number (percent) | Treatment-Related Serious Adverse Events: Neutropenic Fever ([1]; Chronic Phase, N = 12): 1 (9) Number (percent) | Treatment-Related Serious Adverse Events: Thrombocytopenia ([1]; Chronic Phase, N = 12): 1 (9) Number (percent) | Treatment-Related Serious Adverse Events: Acute Coronary Syndrome* ([1]; Chronic Phase, N = 12, considered secondary to omacetaxine induced anemia): 1 (9) Number (percent) | Grade 3/4 Toxicities: Anemia ([1]; Total, N = 23): 10 (43) number (percent) | Grade 3/4 Toxicities: Diarrhea ([1]; Total, N = 23): 4 (17) number (percent) | Grade 3/4 Toxicities: Febrile neutropenia ([1]; Total, N = 23): 5 (22) number (percent) | Grade 3/4 Toxicities: Neutropenia ([1]; Total, N = 23): 10 (43) number (percent) | Grade 3/4 Toxicities: Pancytopenia ([1]; Total, N = 23): 3 (13) number (percent) | Grade 3/4 Toxicities: Thrombocytopenia ([1]; Total, N = 23): 12 (52) number (percent) | Treatment-Related Serious Adverse Events: Acute Coronary Syndrome* ([1]; Total, N = 23): 1 (4) Number (percent) | Treatment-Related Serious Adverse Events: Neutropenic Fever ([1]; Total, N = 23): 3 (13) Number (percent) | Treatment-Related Serious Adverse Events: Thrombocytopenia ([1]; Total, N = 23): 1 (4) Number (percent) | Grade 1/2 injection site erythema, patients ([1]; number (%) of patients): 6 (23%) | Grade 1/2 injection site pain, patients ([1]; number (%) of patients): 3 (13%) | Dose delays ([1]; of induction cycles): 75% | Dose delays ([1]; of maintenance cycles): 80% | myelosuppression (most common side effect) ([1]; subcutaneously administered): usually transient and reversible, and rarely results in serious clinical complications | tolerability ([1]; subcutaneously administered): generally well tolerated | proliferation [2]: inhibits the proliferation | proliferation [3]: inhibits the proliferation | proliferation [4]: inhibits the proliferation | expression of ABL ([5]; K562 (myeloid) cells): inhibited | expression of ABL ([5]; lymphoid cells with BCR-ABL): inhibited | expression of ABL ([5]; lymphoid cells with the BCR-ABL T315I mutation): inhibited | Median Duration of Response, Cytogenetic Response Minimal ([6]; Accelerated Phase, N = 5): 2.3 Months | Median Duration of Response, Hematologic Response HI ([6]; Accelerated Phase, N = 5): 2.8 Months | Median Duration of Response, Hematologic Response CHR [6, 7]: 9.6 (8.3-10.9+) Months | Median Duration of Response, Hematologic Response RCP [6, 7]: 2.0 (2.0-2.0+) Months | Complete Hematologic Response (CHR) ([6]; Accelerated Phase, N = 11): 2 (18) Number (%) | Cytogenetic Response, Minimal ([6]; Accelerated Phase, N = 11): 1 (9) Number (%) | Cytogenetic Response, Overall ([6]; Accelerated Phase, N = 11): 1 (9) Number (%) | Hematologic Improvement (HI) ([6]; Accelerated Phase, N = 11): 1 (9) Number (%) | Hematologic Response, Overall ([6]; Accelerated Phase, N = 11): 5 (45) Number (%) | Return to Chronic Phase (RCP) ([6]; Accelerated Phase, N = 11): 2 (18) Number (%) | Median Duration of Response, Hematologic Response RCP ([6]; Blast Phase, N = 1): 3.4 Months | Hematologic Response, Overall ([6]; Blast Phase, N = 8): 1 (13) Number (%) | Return to Chronic Phase (RCP) ([6]; Blast Phase, N = 8): 1 (13) Number (%) | Median Duration of Response, Cytogenetic Response Partial ([6]; Chronic Phase, N = 20): 4.2 Months | Median Duration of Response, Cytogenetic Response Complete [6, 8]: 4.8 (0.3-9.7+) Months | Median Duration of Response, Cytogenetic Response Minimal [6, 8]: 4.0 (3.9-20.8+) Months | Median Duration of Response, Hematologic Response CHR [6, 8]: 11.5 (3.5-25.4+) Months | Complete Hematologic Response (CHR) ([6]; Chronic Phase, N = 25): 20 (80) Number (%) | Cytogenetic Response, Complete ([6]; Chronic Phase, N = 25): 4 (16) Number (%) | Cytogenetic Response, Minimal ([6]; Chronic Phase, N = 25): 2 (8) Number (%) | Cytogenetic Response, Overall ([6]; Chronic Phase, N = 25): 7 (28) Number (%) | Cytogenetic Response, Partial ([6]; Chronic Phase, N = 25): 1 (4) Number (%) | Hematologic Response, Overall ([6]; Chronic Phase, N = 25): 20 (80) Number (%) | Molecular Response, Major ([6]; Chronic Phase, N = 25): 2 (8) Number (%) | Cytogenetic Response, Major* ([6]; Chronic Phase, N = 25, one complete and one partial cytogenetic response are unconfirmed): 5 (20) Number (%) | progression free survival ([6]; accelerated phase (AP), after one year): 25% | progression free survival ([6]; blast phase (BP), after 6 months): 44% | progression free survival ([6]; chronic phase (CP), after 1 year): 80% | progression free survival ([6]; chronic phase (CP), after 2 years): 70% | duration of complete hematologic and cytogenetic responses ([6]; in vivo): up to one year
